Experimental data reported in patent US10059713B2 (Takeda Pharmaceutical Company Limited, priority 2014, dated 2018).

target: human GPR43 (Homo sapiens (Human), UniProt O15552); experiment: Ca-Flux functional assay: determination of agonist/positive allosteric modulator (PAM) activity; format: cell-based; conditions: CHO-K1 Gα16 cells stably expressing human GPR43; compound added with EC20 sodium acetate; intracellular Ca2+ by FLIPR; does not distinguish agonist from PAM
Procedure, shortened: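 Agonist or PAM activity read as intracellular Ca2+ rise by FLIPR after adding compound plus EC20 acetate, acetate EC20 set from a prior curve. Cells: CHO-K1 Gα16 with stable human GPR43. EC50 from ten-point half-log curves starting 10 μM.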

Chain of human GPR43 (O15552 whole entry): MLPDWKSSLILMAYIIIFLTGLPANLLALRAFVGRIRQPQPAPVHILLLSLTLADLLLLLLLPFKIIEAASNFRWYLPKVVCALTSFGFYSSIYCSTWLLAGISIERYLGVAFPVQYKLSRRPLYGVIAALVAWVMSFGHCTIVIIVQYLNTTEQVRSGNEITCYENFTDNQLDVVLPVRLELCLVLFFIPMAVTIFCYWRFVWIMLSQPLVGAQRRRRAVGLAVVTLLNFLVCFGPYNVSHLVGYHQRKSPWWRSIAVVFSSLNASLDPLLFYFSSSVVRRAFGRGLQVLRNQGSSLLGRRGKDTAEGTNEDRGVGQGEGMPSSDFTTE

Nc1[nH]c2c(C3=CCCCC3)ncnc2c1S(=O)(=O)c1ccc(F)cc1 [Example 26, 4-(cyclohex-1-en-1-yl)-7-[(4-fluorobenzene)sulfonyl]-5H-pyrrolo[3,2-d]pyrimidin-6-amine] and Cc1ccc(S(=O)(=O)c2c(N)[nH]c3c(C4=CCCCC4)ncnc23)cc1 [Example 42, 4-(cyclohex-1-en-1-yl)-7-[(4-methylbenzene)sulfonyl]-5H-pyrrolo[3,2-d]pyrimidin-6-amine] are within 1.5-fold of each other in EC50: 46 nM for the first, 32 nM for the second.

First: Nc1[nH]c2c(N3CCCOCC3)ncnc2c1S(=O)(=O)c1ccccc1 [Example 82, 7-(benzenesulfonyl)-4-(1,4-oxazepan-4-yl)-5H-pyrrolo[3,2-d]pyrimidin-6-amine]
Second: CC1(C)CN(c2ncnc3c(S(=O)(=O)c4ccccc4)c(N)[nH]c23)CCO1 [Example 84, 7-(benzenesulfonyl)-4-(2,2-dimethylmorpholin-4-yl)-5H-pyrrolo[3,2-d]pyrimidin-6-amine]
The EC50 of the first is 40-fold higher: 1150 nM for the first, 29 nM for the second. The second is the more potent here.

Going from Cc1nc(N2CCO[C@@H](C(F)(F)F)C2)c2[nH]c(N)c(S(=O)(=O)c3ccccc3F)c2n1 [Example 289, 7-(2-fluorobenzenesulfonyl)-2-methyl-4-[(2R)-2-(trifluoromethyl)morpholin-4-yl]-5H-pyrrolo[3,2-d]pyrimidin-6-amine] to Cc1nc(N2CCO[C@@H](C(F)(F)F)C2)c2[nH]c(N)c(S(=O)(=O)c3cc(F)ccc3F)c2n1 [Example 291], the EC50 rises from 1 nM to 3 nM (3-fold). The first is the more potent here.

CSc1nc(N2CCOC(C)C2)c2[nH]c(N)c(S(=O)(=O)c3ccccc3)c2n1 (centres unmarked) [Example 238, 7-(benzenesulfonyl)-4-(2-methylmorpholin-4-yl)-2-(methylsulfanyl)-5H-pyrrolo[3,2-d]pyrimidin-6-amine] and Cc1nc(N2C[C@H](C)OC[C@@H]2C)c2[nH]c(N)c(S(=O)(=O)c3ccccc3)c2n1 [Example 220, 7-(benzenesulfonyl)-4-[(2S,5S)-2,5-dimethylmorpholin-4-yl]-2-methyl-5H-pyrrolo[3,2-d]pyrimidin-6-amine] are within 1.5-fold of each other in EC50: 18 nM for the first, 21 nM for the second.

Compared with Cc1nc(N2CCOC3(CC3)C2)c2[nH]c(N)c(S(=O)(=O)c3ccccc3F)c2n1 [Example 208, 7-(2-fluorobenzenesulfonyl)-2-methyl-4-{4-oxa-7-azaspiro[2.5]octan-7-yl}-5H-pyrrolo[3,2-d]pyrimidin-6-amine], Cc1nc(N2CCO[C@H](C)[C@@H]2C)c2[nH]c(N)c(S(=O)(=O)c3ccccc3F)c2n1 (racemic) [Example 275, 4-[(RS,SR)-2,3-dimethylmorpholin-4-yl]-7-(2-fluorobenzenesulfonyl)-2-methyl-5H-pyrrolo[3,2-d]pyrimidin-6-amine] is 1.7-fold higher in EC50: 3 nM for the first, 5 nM for the second. The first is the more potent here.

Going from CC1CC(Oc2ncnc3c(S(=O)(=O)c4ccccc4)c(N)[nH]c23)CC(C)O1 (centres unmarked) [Example 210, 7-(benzenesulfonyl)-4-[(2,6-dimethyloxan-4-yl)oxy]-5H-pyrrolo[3,2-d]pyrimidin-6-amine] to C[C@@H]1CN(c2ncnc3c(S(=O)(=O)c4ccccc4)c(N)[nH]c23)C[C@H](C)O1 [Example 75, 7-(benzenesulfonyl)-4-[(2R,6S)-2,6-dimethylmorpholin-4-yl]-5H-pyrrolo[3,2-d]pyrimidin-6-amine], the EC50 falls from 156 nM to 14 nM (11-fold). The second is the more potent here.

CCC(CC)Oc1nc(C)nc2c(S(=O)(=O)c3ccccc3)c(N)[nH]c12 [Example 248, 7-(benzenesulfonyl)-2-methyl-4-(pentan-3-yloxy)-5H-pyrrolo[3,2-d]pyrimidin-6-amine] and CC[C@@H](C)Oc1nc(C)nc2c(S(=O)(=O)c3ccccc3)c(N)[nH]c12 [Example 244, 7-(benzenesulfonyl)-4-[(2R)-butan-2-yloxy]-2-methyl-5H-pyrrolo[3,2-d]pyrimidin-6-amine] are within 1.5-fold of each other in EC50: 22 nM for the first, 31 nM for the second.

Compared with Cc1nc(N2CCO[C@@H](C(F)(F)F)C2)c2[nH]c(N)c(S(=O)(=O)c3c(F)cccc3F)c2n1 [Example 295, 7-(2,6-difluorobenzenesulfonyl)-2-methyl-4-[(2R)-2-(trifluoromethyl)morpholin-4-yl]-5H-pyrrolo[3,2-d]pyrimidin-6-amine], Nc1[nH]c2c(N3CCOC(C(F)(F)F)C3)ncnc2c1S(=O)(=O)c1ccccc1F (centres unmarked) [Example 302, 7-(2-fluorobenzenesulfonyl)-4-[2-(trifluoromethyl)morpholin-4-yl]-5H-pyrrolo[3,2-d]pyrimidin-6-amine] is 1.5-fold lower in EC50: 3 nM for the first, 2 nM for the second.

CC(C)Oc1ccc(S(=O)(=O)c2c(N)[nH]c3c(N4CCOC(C)C4)ncnc23)cc1 (centres unmarked) [Example 126, 4-(2-methylmorpholin-4-yl)-7-[4-(propan-2-yloxy)benzenesulfonyl]-5H-pyrrolo[3,2-d]pyrimidin-6-amine] and COc1ccc(S(=O)(=O)c2c(N)[nH]c3c(N4CCOC(C)C4)ncnc23)cc1F (centres unmarked) [Example 124, 7-(3-fluoro-4-methoxybenzenesulfonyl)-4-(2-methylmorpholin-4-yl)-5H-pyrrolo[3,2-d]pyrimidin-6-amine] are within 1.5-fold of each other in EC50: 53 nM for the first, 63 nM for the second.

Going from CCC1CN(c2ncnc3c(S(=O)(=O)c4ccccc4)c(N)[nH]c23)CCO1 (centres unmarked) [Example 79, 7-(benzenesulfonyl)-4-(2-ethylmorpholin-4-yl)-5H-pyrrolo[3,2-d]pyrimidin-6-amine] to COCC1CN(c2ncnc3c(S(=O)(=O)c4ccccc4)c(N)[nH]c23)CCO1 (centres unmarked) [Example 81, 7-(benzenesulfonyl)-4-[2-(methoxymethyl)morpholin-4-yl]-5H-pyrrolo[3,2-d]pyrimidin-6-amine], the EC50 rises from 40 nM to 1210 nM (30-fold). The first is the more potent here.

Compared with Nc1[nH]c2c(C3CCCCC3)nncc2c1S(=O)(=O)c1ccccc1 [Example 228, 3-(benzenesulfonyl)-7-cyclohexyl-1H-pyrrolo[2,3-d]pyridazin-2-amine], Nc1[nH]c2c(C3=CCCCC3)nncc2c1S(=O)(=O)c1ccccc1 [Example 227, 3-(benzenesulfonyl)-7-(cyclohex-1-en-1-yl)-1H-pyrrolo[2,3-d]pyridazin-2-amine] is 2.5-fold lower in EC50: 256 nM for the first, 103 nM for the second. The second is the more potent here.

Going from Nc1[nH]c2c(N3CCOC4CCCC43)ncnc2c1S(=O)(=O)c1ccccc1 (centres unmarked) [Example 215, 7-(benzenesulfonyl)-4-{octahydrocyclopenta[b]morpholin-4-yl}-5H-pyrrolo[3,2-d]pyrimidin-6-amine] to CC1CN(c2ncnc3c(S(=O)(=O)c4ccccc4)c(N)[nH]c23)C(C)CO1 (centres unmarked) [Example 85, 7-(benzenesulfonyl)-4-(2,5-dimethylmorpholin-4-yl)-5H-pyrrolo[3,2-d]pyrimidin-6-amine], the EC50 falls from 61 nM to 19 nM (3.2-fold). The second is the more potent here.

First: COc1ccc(S(=O)(=O)c2c(N)[nH]c3c(C4=CCCCC4)ncnc23)cc1 [Example 4, 4-(cyclohex-1-en-1-yl)-7-[(4-methoxybenzene)sulfonyl]-5H-pyrrolo[3,2-d]pyrimidin-6-amine]
Second: Nc1[nH]c2c(C3=CCCCC3)ncnc2c1S(=O)(=O)c1ccc(OC(F)F)cc1 [Example 33, 4-(cyclohex-1-en-1-yl)-7-{[4-(difluoromethoxy)benzene]sulfonyl}-5H-pyrrolo[3,2-d]pyrimidin-6-amine]
The EC50 of the first is 2.1-fold lower: 25 nM for the first, 52 nM for the second.

Compared with CNc1[nH]c2c(C3CCCCC3)ncnc2c1S(=O)(=O)c1ccccc1 [Example 35, 7-(benzenesulfonyl)-4-cyclohexyl-N-methyl-5H-pyrrolo[3,2-d]pyrimidin-6-amine], Nc1[nH]c2c(CCC3CC3)ncnc2c1S(=O)(=O)c1ccccc1 [Example 13, 7-(benzenesulfonyl)-4-(2-cyclopropylethyl)-5H-pyrrolo[3,2-d]pyrimidin-6-amine] is 28-fold lower in EC50: 7520 nM for the first, 267 nM for the second. The second is the more potent here.

Compared with COc1ccc(S(=O)(=O)c2c(N)[nH]c3c(C4=CCCCC4)ncnc23)cn1 [Example 43, 4-(cyclohex-1-en-1-yl)-7-(6-methoxypyridine-3-sulfonyl)-5H-pyrrolo[3,2-d]pyrimidin-6-amine], C=C(C)c1ncnc2c(S(=O)(=O)c3ccc(OC)cc3)c(N)[nH]c12 [Example 71, 7-(4-methoxybenzenesulfonyl)-4-(prop-1-en-2-yl)-5H-pyrrolo[3,2-d]pyrimidin-6-amine] is 7.1-fold higher in EC50: 78 nM for the first, 553 nM for the second. The first is the more potent here.

Compared with C=C(C)c1ncnc2c(S(=O)(=O)c3ccccc3)c(N)[nH]c12 [Example 12, 7-(benzenesulfonyl)-4-(prop-1-en-2-yl)-5H-pyrrolo[3,2-d]pyrimidin-6-amine], Nc1[nH]c2c(/C=C/C3CC3)ncnc2c1S(=O)(=O)c1ccccc1 [Example 11, 7-(benzenesulfonyl)-4-[(E)-2-cyclopropylethenyl]-5H-pyrrolo[3,2-d]pyrimidin-6-amine] is 3.2-fold lower in EC50: 355 nM for the first, 112 nM for the second.

Compared with Cc1ccc(S(=O)(=O)c2c(N)[nH]c3c(N4CCOC(C)C4)ncnc23)c(F)c1 (centres unmarked) [Example 146, 7-(2-fluoro-4-methylbenzenesulfonyl)-4-(2-methylmorpholin-4-yl)-5H-pyrrolo[3,2-d]pyrimidin-6-amine], COc1ccc(S(=O)(=O)c2c(N)[nH]c3c(N4CCOC(C)(C)C4)ncnc23)cc1 [Example 129, 4-(2,2-dimethylmorpholin-4-yl)-7-(4-methoxybenzenesulfonyl)-5H-pyrrolo[3,2-d]pyrimidin-6-amine] is 3.7-fold higher in EC50: 9 nM for the first, 33 nM for the second.

Going from CCN(Cc1cnn(C)c1)c1ncnc2c(S(=O)(=O)c3ccccc3)c(N)[nH]c12 [Example 64, 7-(benzenesulfonyl)-4-N-ethyl-4-N-[(1-methyl-1H-pyrazol-4-yl)methyl]-5H-pyrrolo[3,2-d]pyrimidine-4,6-diamine] to CC1(C)CCCN1c1ncnc2c(S(=O)(=O)c3ccccc3)c(N)[nH]c12 [Example 56, 7-(benzenesulfonyl)-4-(2,2-dimethylpyrrolidin-1-yl)-5H-pyrrolo[3,2-d]pyrimidin-6-amine], the EC50 falls from 2350 nM to 18 nM (130-fold). The second is the more potent here.

Going from Cc1nc(N2CCC(F)(F)CC2)c2[nH]c(N)c(S(=O)(=O)c3cccc(F)c3)c2n1 [Example 181, 4-(4,4-difluoropiperidin-1-yl)-7-(3-fluorobenzenesulfonyl)-2-methyl-5H-pyrrolo[3,2-d]pyrimidin-6-amine] to COc1ccc(S(=O)(=O)c2c(N)[nH]c3c(N4CCC(F)(F)CC4)ncnc23)cc1 [Example 68, 4-(4,4-difluoropiperidin-1-yl)-7-(4-methoxybenzenesulfonyl)-5H-pyrrolo[3,2-d]pyrimidin-6-amine], the EC50 falls from 82 nM to 32 nM (2.6-fold).
